In PubChem BioAssay (NCI):
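Assay format: 96-well plates, 48-hour exposure. The concentration for 50% growth inhibition is given as GI50. TGI denotes the concentration required for complete inhibition of growth.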

Key:
Experiment in all cases: growth of human tumour cells (NCI), 48 h
786-0 renal = test system: 786-0 renal
A498 renal = test system: A498 renal
A549 NSCLC = test system: A549 NSCLC
ACHN renal = test system: ACHN renal
BT-549 breast = test system: BT-549 breast
CAKI-1 renal = test system: CAKI-1 renal
CCRF-CEM leukemia = test system: CCRF-CEM leukemia
COLO 205 colon = test system: COLO 205 colon
DU-145 prostate = test system: DU-145 prostate
EKVX NSCLC = test system: EKVX NSCLC
HCC-2998 colon = test system: HCC-2998 colon
HCT-116 colon = test system: HCT-116 colon
HCT-15 colon = test system: HCT-15 colon
HL-60(TB) leukemia = test system: HL-60(TB) leukemia
HOP-62 NSCLC = test system: HOP-62 NSCLC
HOP-92 NSCLC = test system: HOP-92 NSCLC
HS 578T breast = test system: HS 578T breast
HT29 colon = test system: HT29 colon
IGROV1 ovarian = test system: IGROV1 ovarian
K-562 leukemia = test system: K-562 leukemia
KM12 colon = test system: KM12 colon
LOX IMVI melanoma = test system: LOX IMVI melanoma
M14 melanoma = test system: M14 melanoma
MALME-3M melanoma = test system: MALME-3M melanoma
MCF7 breast = test system: MCF7 breast
MDA-MB-231 breast = test system: MDA-MB-231 breast
MDA-MB-435 = test system: MDA-MB-435
MOLT-4 leukemia = test system: MOLT-4 leukemia
NCI-H226 lung = test system: NCI-H226 lung
NCI-H23 lung = test system: NCI-H23 lung
NCI-H460 lung = test system: NCI-H460 lung
NCI-H522 lung = test system: NCI-H522 lung
NCI/ADR-RES ovarian = test system: NCI/ADR-RES ovarian
OVCAR-3 ovarian = test system: OVCAR-3 ovarian
OVCAR-4 ovarian = test system: OVCAR-4 ovarian
OVCAR-5 ovarian = test system: OVCAR-5 ovarian
OVCAR-8 ovarian = test system: OVCAR-8 ovarian
PC-3 prostate = test system: PC-3 prostate
RPMI-8226 leukemia = test system: RPMI-8226 leukemia
RXF 393 renal = test system: RXF 393 renal
SF-268 CNS = test system: SF-268 CNS
SF-295 CNS = test system: SF-295 CNS
SF-539 CNS = test system: SF-539 CNS
SK-MEL-2 melanoma = test system: SK-MEL-2 melanoma
SK-MEL-28 melanoma = test system: SK-MEL-28 melanoma
SK-MEL-5 melanoma = test system: SK-MEL-5 melanoma
SK-OV-3 ovarian = test system: SK-OV-3 ovarian
SN12C renal = test system: SN12C renal
SNB-19 CNS = test system: SNB-19 CNS
SNB-75 CNS = test system: SNB-75 CNS
SR leukemia = test system: SR leukemia
SW-620 colon = test system: SW-620 colon
T-47D breast = test system: T-47D breast
TK-10 renal = test system: TK-10 renal
U251 CNS = test system: U251 CNS
UACC-257 melanoma = test system: UACC-257 melanoma
UACC-62 melanoma = test system: UACC-62 melanoma

O=C(N[C@H](c1ccc(Cl)c(Cl)c1)C1CNC1)c1ccc2cnccc2c1
GI50 (786-0 renal): 1.78 µM
TGI (786-0 renal): 11.5 µM
GI50 (A498 renal): 1.78 µM
TGI (A498 renal): 10.5 µM
GI50 (A549 NSCLC): 3.29 µM
TGI (A549 NSCLC): 16.5 µM
GI50 (ACHN renal): 6.11 µM
TGI (ACHN renal): 18.9 µM
GI50 (BT-549 breast): 2.64 µM
TGI (BT-549 breast): 12 µM
GI50 (CAKI-1 renal): 1.84 µM
TGI (CAKI-1 renal): 10.7 µM
GI50 (CCRF-CEM leukemia): 2.74 µM
TGI (CCRF-CEM leukemia): 13.6 µM
GI50 (COLO 205 colon): 2.96 µM
TGI (COLO 205 colon): 11.5 µM
GI50 (DU-145 prostate): 8.52 µM
TGI (DU-145 prostate): 21 µM
GI50 (EKVX NSCLC): 3.15 µM
TGI (EKVX NSCLC): 16.4 µM
GI50 (HCC-2998 colon): 2.06 µM
TGI (HCC-2998 colon): 6.06 µM
GI50 (HCT-116 colon): 3.23 µM
TGI (HCT-116 colon): 13.2 µM
GI50 (HCT-15 colon): 5.02 µM
TGI (HCT-15 colon): 18.3 µM
GI50 (HL-60(TB) leukemia): 2.83 µM
TGI (HL-60(TB) leukemia): 12.8 µM
GI50 (HOP-62 NSCLC): 4.34 µM
TGI (HOP-62 NSCLC): 16.7 µM
GI50 (HOP-92 NSCLC): 0.966 µM
TGI (HOP-92 NSCLC): 5.91 µM
GI50 (HS 578T breast): 1 µM
TGI (HS 578T breast): 4.71 µM
GI50 (HT29 colon): 3.24 µM
TGI (HT29 colon): 14.4 µM
GI50 (IGROV1 ovarian): 1.93 µM
TGI (IGROV1 ovarian): 10.6 µM
GI50 (K-562 leukemia): 3.37 µM
TGI (K-562 leukemia): 14 µM
GI50 (KM12 colon): 2.34 µM
TGI (KM12 colon): 11.9 µM
GI50 (LOX IMVI melanoma): 3.42 µM
TGI (LOX IMVI melanoma): 13.9 µM
GI50 (M14 melanoma): 4.18 µM
TGI (M14 melanoma): 16.7 µM
GI50 (MALME-3M melanoma): 3.06 µM
TGI (MALME-3M melanoma): 14.6 µM
GI50 (MCF7 breast): 3.25 µM
TGI (MCF7 breast): 13.9 µM
GI50 (MDA-MB-231 breast): 3.36 µM
TGI (MDA-MB-231 breast): 15 µM
GI50 (MDA-MB-435): 2.84 µM
TGI (MDA-MB-435): 11.8 µM
GI50 (MOLT-4 leukemia): 1.41 µM
TGI (MOLT-4 leukemia): 5.67 µM
GI50 (NCI-H226 lung): 4.3 µM
TGI (NCI-H226 lung): 19.7 µM
GI50 (NCI-H23 lung): 5.83 µM
TGI (NCI-H23 lung): 19.6 µM
GI50 (NCI-H460 lung): 2.68 µM
TGI (NCI-H460 lung): 15.4 µM
GI50 (NCI-H522 lung): 12.9 µM
TGI (NCI-H522 lung): 26.5 µM
GI50 (NCI/ADR-RES ovarian): 15.6 µM
TGI (NCI/ADR-RES ovarian): 30.2 µM
GI50 (OVCAR-3 ovarian): 11.5 µM
TGI (OVCAR-3 ovarian): 23.9 µM
GI50 (OVCAR-4 ovarian): 5.68 µM
TGI (OVCAR-4 ovarian): 19.4 µM
GI50 (OVCAR-5 ovarian): 2.94 µM
TGI (OVCAR-5 ovarian): 16.7 µM
GI50 (OVCAR-8 ovarian): 10.4 µM
TGI (OVCAR-8 ovarian): 23 µM
GI50 (PC-3 prostate): 3.48 µM
TGI (PC-3 prostate): 16.1 µM
GI50 (RPMI-8226 leukemia): 3.9 µM
TGI (RPMI-8226 leukemia): 14.1 µM
GI50 (RXF 393 renal): 0.68 µM
TGI (RXF 393 renal): 3.74 µM
GI50 (SF-268 CNS): 2.56 µM
TGI (SF-268 CNS): 15.6 µM
GI50 (SF-295 CNS): 3.04 µM
TGI (SF-295 CNS): 14.5 µM
GI50 (SF-539 CNS): 1.71 µM
TGI (SF-539 CNS): 11.3 µM
GI50 (SK-MEL-2 melanoma): 10.2 µM
TGI (SK-MEL-2 melanoma): 22.4 µM
GI50 (SK-MEL-28 melanoma): 5.5 µM
TGI (SK-MEL-28 melanoma): 18.6 µM
GI50 (SK-MEL-5 melanoma): 11.1 µM
TGI (SK-MEL-5 melanoma): 23.2 µM
GI50 (SK-OV-3 ovarian): 3.26 µM
TGI (SK-OV-3 ovarian): 13.1 µM
GI50 (SN12C renal): 2.76 µM
TGI (SN12C renal): 15.7 µM
GI50 (SNB-19 CNS): 8.9 µM
TGI (SNB-19 CNS): 21.5 µM
GI50 (SNB-75 CNS): 0.405 µM
TGI (SNB-75 CNS): 3.68 µM
GI50 (SR leukemia): 2.11 µM
TGI (SR leukemia): 10.8 µM
GI50 (SW-620 colon): 2.57 µM
TGI (SW-620 colon): 15.2 µM
GI50 (T-47D breast): 2.29 µM
TGI (T-47D breast): 13.5 µM
GI50 (TK-10 renal): 1.73 µM
TGI (TK-10 renal): 10.7 µM
GI50 (U251 CNS): 4.62 µM
TGI (U251 CNS): 17.8 µM
GI50 (UACC-257 melanoma): 5.18 µM
TGI (UACC-257 melanoma): 18.6 µM
GI50 (UACC-62 melanoma): 5.39 µM
TGI (UACC-62 melanoma): 19.1 µM
